Assay results published in the supplement of paper PMC9265050, “Inhibition of RNA Binding in SND1 Increases the Levels of miR-1-3p and Sensitizes Cancer Cells to Navitoclax” (Cancers, 2022).

Test system: SW480
Assay: drug sensitivity score (DSS, integrated dose-response area); higher = more sensitive (stronger viability reduction); extreme values may be limits of the assay
In short: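 SW480 cells stably carrying doxycycline-inducible control or SND1-targeting shRNA were induced with 0.1 µg/mL doxycycline for 7 days. They were then plated at 1000 cells per well in 384-well plates holding 525 commercially available small-molecule inhibitors at five concentrations. Viability was read with CellTiter-Glo after 72 h. The drug sensitivity score integrates the area under a fitted non-linear dose–response model.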

[1] = shRNA: SND1 shRNA1 (SND1 silenced)
[2] = shRNA: SND1 shRNA2 (SND1 silenced)
[3] = shRNA: control shRNA (non-targeting)

SMILES	drug sensitivity score [1] [DSS]	drug sensitivity score [2] [DSS]	drug sensitivity score [3] [DSS]
CCN1CCN(Cc2ccc(Nc3ncc(F)c(-c4cc(F)c5nc(C)n(C(C)C)c5c4)n3)nc2)CC1 [Abemaciclib]	4	0.2	4.1
CN(C)Cc1c(C(=O)NCCOc2ccc(C(=O)NO)cc2)oc2ccccc12 [Abexinostat]	21.3	16.4	19.4
C[C@]12CC[C@H](O)CC1=CC[C@@H]1[C@@H]2CC[C@]2(C)C(c3cccnc3)=CC[C@@H]12 [Abiraterone]	0	0	0
CN(C)C/C=C/C(=O)Nc1cc2c(Nc3ccc(F)c(Cl)c3)ncnc2cc1O[C@H]1CCOC1 [Afatinib]	2.1	1.8	1.2
Cn1ncc(Cl)c1-c1cc(C(=O)N[C@H](CN)Cc2cccc(F)c2)sc1Cl [Afuresertib]	0	2	0
COc1cccc2c1C(=O)c1c(O)c3c(c(O)c1C2=O)C[C@@](O)(/C(CO)=N/NC(=O)CCCCCN1C(=O)C=CC1=O)C[C@@H]3O[C@H]1C[C@H](N)[C@H](O)[C@H](C)O1 [Aldoxorubicin]	7.5	5.7	8.4
CCc1cc2c(cc1N1CCC(N3CCOCC3)CC1)C(C)(C)c1[nH]c3cc(C#N)ccc3c1C2=O [Alectinib]	0	0	0
COc1cc(Nc2ncc3c(n2)-c2ccc(Cl)cc2C(c2c(F)cccc2OC)=NC3)ccc1C(=O)O [Alisertib]	12.6	4.4	6.5
Oc1ncnc2[nH]ncc12 [Allopurinol]	0.2	0	1.2
Cc1nc(NC(=O)N2CCC[C@H]2C(N)=O)sc1-c1ccnc(C(C)(C)C(F)(F)F)c1 [Alpelisib]	2.8	5.2	4.3
CN(C)c1nc(N(C)C)nc(N(C)C)n1 [Altretamine]	0	0	0
CO[C@H]1/C=C\C=C(/C)C(=O)NC2=CC(=O)C(NCCN(C)C)=C(C[C@@H](C)C[C@H](OC)[C@H](O)[C@@H](C)/C=C(\C)[C@@H]1OC(N)=O)C2=O [Alvespimycin]	7	6	7.9
CN1CC[C@H](c2c(O)cc(O)c3c(=O)cc(-c4ccccc4Cl)oc23)[C@H](O)C1 [Alvocidib]	21.9	20.3	20.4
CCC1(c2ccc(N)cc2)CCC(=O)NC1=O (centres undefined) [Aminoglutethimide]	0	0	0
CN(C)CCN1C(=O)c2cccc3cc(N)cc(c23)C1=O [Amonafide]	8.8	5.2	7.8
COc1cc(NS(C)(=O)=O)ccc1Nc1c2ccccc2nc2ccccc12 [Amsacrine]	8.6	3.7	7
S=C(NCc1ccc2c(c1)OCO2)N1CCN(c2ncnc3c2oc2ccccc23)CC1 [Amuvatinib]	3.9	6.4	6.7
O=C1CN2Cc3c(ccc(Cl)c3Cl)N=C2N1 [Anagrelide]	0	0	0
CC(C)(C#N)c1cc(Cn2cncn2)cc(C(C)(C)C#N)c1 [Anastrozole]	0	0	0
N#CC1(c2ccc(NC(=O)c3cccnc3NCc3ccncc3)cc2)CCCC1 [Apatinib]	0	0	0
Cc1c(CN2CCN(C(=O)[C@H](C)O)CC2)sc2c(N3CCOCC3)nc(-c3cnc(N)nc3)nc12 [Apitolisib]	11	9.3	6.6
CC(C)c1c(C(=O)Nc2ccccc2)c(-c2ccccc2)c(-c2ccc(F)cc2)n1CC[C@@H](O)C[C@@H](O)CC(=O)O [Atorvastatin]	4.9	–	7.6
CC(=O)OC[C@H]1O[C@@H]([S-])[C@H](OC(C)=O)[C@@H](OC(C)=O)[C@@H]1OC(C)=O.CCP(CC)CC.[Au+] [Auranofin]	6.2	8.8	8.7
CNC(=O)c1ccccc1Sc1ccc2c(/C=C/c3ccccn3)n[nH]c2c1 [Axitinib]	6	2.8	5.4

SMILES	drug sensitivity score [1] [DSS]	drug sensitivity score [2] [DSS]	drug sensitivity score [3] [DSS]
Nc1ncn([C@@H]2O[C@H](CO)[C@@H](O)[C@H]2O)c(=O)n1 [Azacitidine]	3.7	4.4	2.9
Cc1cc(-c2nc(-c3ccc(OC(F)(F)F)cc3)no2)nn1Cc1ccnc(N2CCN(C3CC3)CC2)c1 [BAY 87-2243]	0.3	21.9	1.1
Nc1nc(Nc2ccc3c(c2)CC[C@@H](N2CCCC2)CC3)nn1-c1cc2c(nn1)-c1ccccc1CCC2 [BGB324]	9	5.9	9.6
CC[C@@H]1C(=O)N(C)c2cnc(Nc3ccc(C(=O)NC4CCN(C)CC4)cc3OC)nc2N1C1CCCC1 [BI 2536]	16.8	18.5	19.9
COc1c(C)cnc(Cn2cnc3c(Cl)nc(N)nc32)c1C [BIIB021]	17.4	18.4	17.8
O=C(Nc1cccc(Nc2ncc(Br)c(NCCc3cnc[nH]3)n2)c1)N1CCCC1 [BX-912]	6.7	6.5	8.5
Cc1ccc(NC(=O)c2ccc(CN3CC[C@H](N(C)C)C3)c(C(F)(F)F)c2)cc1Nc1nccc(-c2cncnc2)n1 [Bafetinib]	0.3	0	0
CCS(=O)(=O)N1CC(CC#N)(n2cc(-c3ncnc4[nH]ccc34)cn2)C1 [Baricitinib]	0	0.3	1
O=C(/C=C/c1cccc(S(=O)(=O)Nc2ccccc2)c1)NO [Belinostat]	16.4	13.8	12.7
Cn1c(CCCC(=O)O)nc2cc(N(CCCl)CCCl)ccc21 [Bendamustine]	1.7	0.5	3.5
N#CC(c1ccnc(OCc2ccc(CN3CCOCC3)cc2)n1)c1nc2ccccc2s1 (centres undefined) [Bentamapimod]	2.3	–	4
C=C(c1ccc(C(=O)O)cc1)c1cc2c(cc1C)C(C)(C)CCC2(C)C [Bexarotene]	0	0	0
CC(O)(CS(=O)(=O)c1ccc(F)cc1)C(=O)Nc1ccc(C#N)c(C(F)(F)F)c1 (centres undefined) [Bicalutamide]	0.4	0.3	1.4
CCNC(=O)CCC/C=C\C[C@@H]1[C@@H](/C=C/[C@@H](O)CCc2ccccc2)[C@H](O)C[C@@H]1O [Bimatoprost]	0	0	0
Cn1cnc2c(F)c(Nc3ccc(Br)cc3F)c(C(=O)NOCCO)cc21 [Binimetinib]	11.9	6.6	6.6
CC[C@H](NC(=O)[C@H](C)NC)C(=O)N1C[C@@H](O)C[C@H]1Cc1c(-c2[nH]c3cc(F)ccc3c2C[C@@H]2C[C@H](O)CN2C(=O)[C@H](CC)NC(=O)[C@H](C)NC)[nH]c2cc(F)ccc12 [Birinapant]	0	0	0
Cc1c(N)nc([C@H](CC(N)=O)NC[C@H](N)C(N)=O)nc1C(=O)N[C@H](C(=O)N[C@H](C)[C@@H](O)[C@H](C)C(=O)N[C@H](C(=O)NCCc1nc(-c2nc(C(=O)NCCC[S+](C)C)cs2)cs1)[C@@H](C)O)[C@@H](OC1OC(CO)C(O)C(O)C1OC1OC(CO)C(O)C(OC(N)=O)C1O)c1cnc[nH]1 (some centres undefined) [Bleomycin]	4.8	5.4	4.2
CC(C)C[C@H](NC(=O)[C@H](Cc1ccccc1)NC(=O)c1cnccn1)B(O)O [Bortezomib]	28.8	28.1	28.7
COc1cc(Nc2c(C#N)cnc3cc(OCCCN4CCN(C)CC4)c(OC)cc23)c(Cl)cc1Cl [Bosutinib]	9.2	7.3	8
Cc1cc2c(F)c(Oc3ncnn4cc(OC[C@@H](C)O)c(C)c34)ccc2[nH]1 [Brivanib]	0	0	0
CCC/C=C/C=C/C(=O)O[C@H]1/C(=C/C(=O)OC)C[C@H]2C[C@H]([C@@H](C)O)OC(=O)C[C@H](O)C[C@@H]3C[C@H](OC(C)=O)C(C)(C)[C@](O)(C[C@@H]4C/C(=C/C(=O)OC)C[C@H](/C=C/C(C)(C)[C@]1(O)O2)O4)O3 [Bryostatin 1]	1.7	0.6	0
Nc1cc(C(F)(F)F)c(-c2cc(N3CCOCC3)nc(N3CCOCC3)n2)cn1 [Buparlisib]	8.9	7.7	5.9
CS(=O)(=O)OCCCCOS(C)(=O)=O [Busulfan]	0	1.4	1.5
